Converted amounts (≈) assume the structure as drawn. “And” between values parts separate entries of the source, which are not always exact repeats. Equal values may be shown once. The source made the active and inactive calls. No cut-off for these calls is given here.
Experiments:
[1] = Binding affinity to Pu24 DNA (unknown origin) assessed as change in melting temperature at 5 uM at pH 7.4 by fluorescence melting assay
Homo sapiens [2] = species: Homo sapiens; assay: Binding affinity to human telomeric DNA sequence assessed as change in melting temperature at 5 uM at pH 7.4 by fluorescence melting assay
[3] = Binding affinity to double stranded DNA (unknown origin) assessed as change in melting temperature at 5 uM at pH 7.4 by fluorescence melting assay
[4] = Solubility in water at 25 degC sonicated for 10 mins by HPLC method; assay type: physicochemical
[5] = Growth inhibition of human NCI60 cells; assay type: functional
U2OS [6] = assay: Growth inhibition of human U2OS cells after 72 hrs by coulter counter method; assay type: functional, cell-based
U2OS [7] = assay: Induction of cell cycle arrest in human U2OS cells assessed as accumulation at G2/M phase at cytotoxic IC50 level by propidium iodide staining based based cytofluorimetry; assay type: functional; conditions: TDE = time-dependent effect
[8] = target: T1, DNA topoisomerase 1 (Homo sapiens) (UniProt P11387); assay: Inhibition of human recombinant topoisomerase 1-dependent DNA cleavage using 751-bp BamHI-EcoRI fragment of SV40 DNA at 1 to 50 uM incubated for 30 mins by PAGE method
T1 sequence (whole entry): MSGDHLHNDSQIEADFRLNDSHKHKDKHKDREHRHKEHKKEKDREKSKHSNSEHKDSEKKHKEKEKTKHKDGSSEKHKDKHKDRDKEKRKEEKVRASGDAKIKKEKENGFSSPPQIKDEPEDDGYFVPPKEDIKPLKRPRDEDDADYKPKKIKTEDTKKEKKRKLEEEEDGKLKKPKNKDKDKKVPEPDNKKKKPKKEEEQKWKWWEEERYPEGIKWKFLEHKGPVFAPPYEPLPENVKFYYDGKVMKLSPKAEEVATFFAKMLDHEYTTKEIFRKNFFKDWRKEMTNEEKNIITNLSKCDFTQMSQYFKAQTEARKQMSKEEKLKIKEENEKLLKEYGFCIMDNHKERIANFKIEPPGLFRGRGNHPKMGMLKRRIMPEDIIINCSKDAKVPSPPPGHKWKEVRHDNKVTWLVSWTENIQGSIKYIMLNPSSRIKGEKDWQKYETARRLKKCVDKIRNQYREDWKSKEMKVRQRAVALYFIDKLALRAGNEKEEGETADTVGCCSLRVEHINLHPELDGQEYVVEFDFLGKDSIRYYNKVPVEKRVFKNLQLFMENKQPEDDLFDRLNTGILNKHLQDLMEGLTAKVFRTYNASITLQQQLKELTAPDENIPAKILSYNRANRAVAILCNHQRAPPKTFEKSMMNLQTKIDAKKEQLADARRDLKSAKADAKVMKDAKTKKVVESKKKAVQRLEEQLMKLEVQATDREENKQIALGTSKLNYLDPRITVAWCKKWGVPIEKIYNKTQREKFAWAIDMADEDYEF

Homo sapiens [9] = species: Homo sapiens; assay: Binding affinity to human telomeric DNA sequence Tel22 assessed as induction of modification of dichroic signal at 0 to 16 uM at pH 7.4 by CD spectroscopy
Tubulin (Homo sapiens) [10] = target: T2, Tubulin (Homo sapiens) (UniProt P68371+Q9H4B7+P0DPH7+P68366+Q13509+Q71U36+P04350+Q3ZCM7+P07437+P68363+Q9BQE3+Q6PEY2+Q13885+Q9BVA1+Q9BUF5); assay: Inhibition of tubulin polymerization in human U2OS cells at cytotoxic IC50 level after 72 hrs by Western blotting method; assay type: cell-based
Calf thymus DNA = assay: Binding affinity to calf thymus double stranded DNA assessed as induction of modification of dichroic signal by CD spectroscopy; assay type: nucleic-acid assay; conditions: Bos taurus
U2OS [11] = assay: Induction of telomere architecture perturbations in human U2OS cells assessed as displacement of hPOT1 from telomeres at cytotoxic IC50 level after 24 hrs by chromatin immunoprecipitation method; assay type: functional
U2OS [12] = assay: Induction of cell cycle arrest in human U2OS cells assessed as increase in accumulation at subG1 phase at cytotoxic IC50 level by propidium iodide staining based based cytofluorimetry; assay type: functional; conditions: TDE = time-dependent effect
Tubulin (Homo sapiens) [13] = target: T2, Tubulin (Homo sapiens); assay: Induction of tubulin polymerization in human U2OS cells at cytotoxic IC50 level after 72 hrs by Western blotting method; assay type: cell-based
U2OS [14] = assay: Induction of apoptosis in human U2OS cells assessed as increase in caspase-3 catalytic activity at cytotoxic IC50 level after 72 hrs; assay type: functional
[15] = target: T1, DNA topoisomerase 1 (Homo sapiens); conditions: 50 uM
Description: Inhibition of human recombinant topoisomerase 1-dependent DNA cleavage using 751-bp BamHI-EcoRI fragment of SV40 DNA at 50 uM incubated for 30 mins by PAGE method

[16] = target: Cyclin-dependent kinase 1 (Homo sapiens, UniProt P06493); assay: Inhibition of CDC2 kinase (unknown origin) using histone H1 and [32P]-ATP
Chain of Cyclin-dependent kinase 1 (P06493 whole entry): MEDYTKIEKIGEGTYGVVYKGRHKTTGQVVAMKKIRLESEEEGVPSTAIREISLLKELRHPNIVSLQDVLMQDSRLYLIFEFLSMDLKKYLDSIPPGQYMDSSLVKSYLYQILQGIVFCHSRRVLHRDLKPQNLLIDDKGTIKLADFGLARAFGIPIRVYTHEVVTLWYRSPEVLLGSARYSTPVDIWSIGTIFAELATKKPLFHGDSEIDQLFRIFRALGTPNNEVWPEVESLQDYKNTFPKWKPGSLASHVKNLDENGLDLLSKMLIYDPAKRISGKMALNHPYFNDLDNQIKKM

[17] = Inhibition of purified recombinant glutathione-S-transferase tagged cdc25 phosphatase (unknown origin) assessed as reduction in p-nitrophenylphosphate phosphatase activity by colorimetry; set-up: species or system Homo sapiens
U2OS [18] = assay: Induction of telomere architecture perturbations in human U2OS cells assessed as displacement of human DNA topoisomerase 1 from telomeres at cytotoxic IC50 level after 24 hrs by chromatin immunoprecipitation method; assay type: functional
U2OS [19] = assay: Induction of telomere architecture perturbations in human U2OS cells assessed as increase in DNA topoisomerase 1 binding to telomeric sequences at cytotoxic IC50 level after 12 hrs by chromatin immunoprecipitation method; assay type: functional
U2OS [20] = assay: Induction of telomere architecture perturbations in human U2OS cells assessed as increase in DNA topoisomerase 1 binding to telomeric sequences at cytotoxic IC50 level after 6 hrs by chromatin immunoprecipitation method; assay type: functional
U2OS [21] = assay: Induction of telomere architecture perturbations in human U2OS cells assessed as displacement of TRF2 from telomeres at cytotoxic IC50 level after 24 hrs by chromatin immunoprecipitation method; assay type: functional
U2OS [22] = assay: Induction of telomere architecture perturbations in human U2OS cells assessed as displacement of hPOT1 from telomeres at cytotoxic IC50 level after 12 hrs by chromatin immunoprecipitation method; assay type: functional
U2OS [23] = assay: Induction of telomere architecture perturbations in human U2OS cells assessed as displacement of hPOT1 from telomeres at cytotoxic IC50 level after 72 hrs by chromatin immunoprecipitation method; assay type: functional, cell-based

SMILES	ΔTm [1]	ΔTm (Homo sapiens [2])	ΔTm [3]	solubility at 10 min [4] [mM]	GI50 ([5]; Homo sapiens, NCI60) [µM]	other results
Cc1cc2cn3c4ccc(O)cc4[nH]c(=N)c3c2cc1C [listing 1 of 2 here]	1.9 °C and 1.1 °C	3.6 °C and 2.5 °C	0.2 °C and 0.1 °C			
N=c1[nH]c2cc(Cl)c(Cl)cc2n2cc3ccccc3c12	1.1 °C	0.3 °C	0 °C			
Cc1cc2cn3c4ccc(O)cc4[nH]c(=N)c3c2cc1C [listing 2 of 2 here]				14.1 (≈ 3910 µg/mL)		GI50 [5]: < 1.45 µM
COc1cc2cn3c4ccc(O)cc4[nH]c(=N)c3c2cc1OC [listing 1 of 2 here]	3.4 °C and 2.4 °C	5.9 °C and 6.2 °C	0.3 °C and 0.2 °C			growth inhibition (GI) (U2OS [6]): Active; Activity (U2OS [7]): tde; inhibition of DNA cleavage (qualitative) [8]: Active; Activity (Homo sapiens [9]): Active; tubulin polymerization inhibition (active/inactive) (Tubulin (Homo sapiens) [10]): Active; Activity (Calf thymus DNA): Active; Activity (U2OS [11]): inactive; Activity (U2OS [12]): tde
COc1ccc2c(c1)[nH]c(=N)c1c3cc(OC)c(OC)cc3cn21 [listing 1 of 2 here]				14.4 (≈ 4660 µg/mL)	> 15.5	
CC(=O)O[C@H]1C(=O)[C@@]2(C)[C@H]([C@H](OC(=O)c3ccccc3)[C@]3(O)C[C@H](OC(=O)[C@H](O)[C@@H](NC(=O)c4ccccc4)c4ccccc4)C(C)=C1C3(C)C)[C@]1(OC(C)=O)CO[C@@H]1C[C@@H]2O						Activity (Tubulin (Homo sapiens) [13]): Active; Activity (U2OS [14]): Active
CC(=O)O.COc1ccc2c(c1)cn1c3ccc(O)cc3[nH]c(=N)c21				10.9		GI50 [5]: < 8.32 µM
CC(=O)O.N=c1[nH]c2cc(O)ccc2n2cc3c(F)cccc3c12				12.7		GI50 [5]: 6.31 µM
CCc1c2c(nc3ccc(O)cc13)-c1cc3c(c(=O)n1C2)COC(=O)[C@]3(O)CC						inhibition [15]: Active
COc1ccc2c(c1)cn1c3ccc(O)cc3[nH]c(=N)c21 [listing 1 of 2 here]				21.9 (≈ 6120 µg/mL)	11	
COc1ccc2c(c1)[nH]c(=N)c1c3cc(OC)c(OC)cc3cn21 [listing 2 of 2 here]	4.1 °C and 2.4 °C	5 °C and 3.1 °C	0 °C and 0.1 °C			
CCC1=C[C@@H]2CN(C1)Cc1c([nH]c3ccccc13)[C@@](C(=O)OC)(c1cc3c(cc1OC)N(C)[C@H]1[C@@](O)(C(=O)OC)[C@H](OC(C)=O)[C@]4(CC)C=CCN5CC[C@]31[C@@H]54)C2						Activity (U2OS [14]): Active; tubulin polymerization inhibition (active/inactive) (Tubulin (Homo sapiens) [10]): Active
O=C(Cn1c2ccc(Br)cc2c2nc3ccccc3nc21)NNC(=S)NC1CCCCC1						IC50 [16]: 70 µM; IC50 [17]: 25 µM
COc1cc2cn3c4ccc(O)cc4[nH]c(=N)c3c2cc1OC [listing 2 of 2 here]				24.5 (≈ 7580 µg/mL)	< 3.24	inhibition (INH) (U2OS [18]): 57%; Activity (U2OS [19]): 309%; fold change (FC) (U2OS [14]): 23; Activity (U2OS [20]): 64%; Activity (U2OS [21]): -80%; Activity (U2OS [22]): -88%
COc1ccc2c(c1)cn1c3ccc(OC)cc3[nH]c(=N)c21	1.1 °C	1.2 °C	0 °C	13 (≈ 3810 µg/mL)	< 1.2	growth inhibition (GI) (U2OS [6]): Active; inhibition (INH) (U2OS [18]): 57%; Activity (U2OS [7]): tde; fold change (FC) (U2OS [14]): 13; inhibition of DNA cleavage (qualitative) [8]: Dose-dependent effect; Activity (U2OS [23]): inactive; tubulin polymerization inhibition (active/inactive) (Tubulin (Homo sapiens) [10]): Active; Activity (U2OS [21]): -67%; Activity (Calf thymus DNA): inactive; Activity (U2OS [12]): tde
COc1ccc2c(c1)[nH]c(=N)c1c3cc(C)c(C)cc3cn21	2.1 °C	2.6 °C and 1.4 °C	0.1 °C and 0 °C	7.8 (≈ 2270 µg/mL)	< 3.8	

SMILES	ΔTm [1]	ΔTm (Homo sapiens [2])	ΔTm [3]	solubility at 10 min [4] [mM]	GI50 ([5]; Homo sapiens, NCI60) [µM]	other results
COc1ccc2cn3c4ccc(O)cc4[nH]c(=N)c3c2c1	0.2 °C	1.9 °C	0.2 °C	22.4 (≈ 6260 µg/mL)	12.3	
COc1ccc2c(c1)[nH]c(=N)c1c3ccccc3cn21	2 °C	1.4 °C	0.2 °C			
COc1ccc(OC)c2c1[nH]c(=N)c1c3ccccc3cn21	2.6 °C and 2.2 °C	4.3 °C and 4.4 °C	0.3 °C and 0.7 °C	12.7 (≈ 3730 µg/mL)	2.29	
CC(=O)O.COc1ccc2c(c1)[nH]c(=N)c1c3cc(OC)c(OC)cc3cn21				7.2		GI50 [5]: < 9.55 µM
CC(=O)O.COc1cc2cn3c4ccc(O)cc4[nH]c(=N)c3c2cc1OC				14		inhibition (INH) (U2OS [18]): 57%; Activity (U2OS [19]): 77%; fold change (FC) (U2OS [14]): 17; Activity (U2OS [21]): -66%; GI50 [5]: < 3.31 µM; Activity (U2OS [22]): -63%; Activity (U2OS [11]): -31%
COc1ccc2c(c1)[nH]c(=N)c1c3cc(OC)ccc3cn21				13.2 (≈ 3870 µg/mL)	< 1.05	
N=c1[nH]c2cc(O)ccc2n2cc3c(F)cccc3c12 [listing 1 of 2 here]				23 (≈ 6150 µg/mL)		GI50 [5]: 31.6 µM
COc1ccc2c(c1)[nH]c(=O)c1c3ccccc3cn21				3.4 (≈ 899 µg/mL)		
COc1ccc2[nH]c(=N)c3c4ccccc4cn3c2c1	1.1 °C and 2.3 °C	1.5 °C and 2 °C	0.1 °C and 0 °C	13.8 (≈ 3630 µg/mL)	1.55	
Cc1cccc2c1[nH]c(=N)c1c3ccccc3cn21	1.5 °C	1.8 °C	0.2 °C			
N=c1[nH]c2cc(O)ccc2n2cc3c(F)cccc3c12 [listing 2 of 2 here]	2 °C and 1 °C	1 °C and 0.8 °C	0 °C			inhibition of DNA cleavage (qualitative) [8]: Dose-dependent effect
CC(=O)O.Cc1cc2cn3c4ccc(O)cc4[nH]c(=N)c3c2cc1C				9.8		GI50 [5]: < 5.25 µM
COc1ccc2c(c1)[nH]c(=N)c1c3cccc(F)c3cn21	2.1 °C	1.8 °C	0.2 °C	14.4 (≈ 4050 µg/mL)	10.7	
N=c1[nH]c2ccccc2n2cc3ccccc3c12	1.5 °C	1.1 °C	0.3 °C			
COc1ccc2c(c1)cn1c3ccc(O)cc3[nH]c(=N)c21 [listing 2 of 2 here]	1.9 °C and 2.9 °C	4.4 °C and 4.3 °C	0.1 °C and 0.7 °C			
Cc1cc2[nH]c(=N)c3c4ccccc4cn3c2cc1C	1.9 °C	3.1 °C	0.3 °C			
